{
  "source": "patent US8092845B2",
  "about": "“Anti-inflammatory extract and agent and method for the production thereof” (Otkrytoe Aktsionernoe Obschestvo Zavod Ekologicheskoy …, priority 2004, dated 2012)",
  "key": {"[1]": {"tested_on": "peritonitis in rats", "assay": "acute exudative inflammation (peritonitis) caused by intraperitoneal injection of acetic acid, rats", "format": "in vivo", "conditions": "8 mg/kg", "description": "(§1) The evaluation of the anti-inflammatory activity for Boswellik has been carried out in a model of the acute inflammatory process—peritonitis—in rats and mice, caused by the intraperitoneal injection of acetic acid."}, "[2]": {"tested_on": "peritonitis in mice", "assay": "acute exudative inflammation (peritonitis) caused by intraperitoneal injection of acetic acid, mice", "format": "in vivo", "conditions": "8 mg/kg", "description": "as §1"}, "[3]": {"tested_on": "nondescript mice", "conditions": "both, mouse, in vivo", "experimental": "Diclofenac was used for the comparison of the therapeutic activity of Boswellik. Studies were performed on both male and female nondescript mice after oral administration of the preparations."}, "[4]": {"tested_on": "isolated human blood cells", "assay": "in vitro synthesis of immunoglobulins by isolated human blood cells", "format": "cell-based"}, "[5]": {"tested_on": "formalin-induced arthritis in rabbits", "assay": "formalin-induced arthritis in rabbits (hematology and joint histology)", "protocol": "Experiments were carried out on 51 rabbits “Chinchilla” having a weight of 2800-3200 g. […] An arthritis model was caused by administration of 0.1 ml of a 2% formalin solution into the cavity of the knee joint—and a model of acute arthritis was obtained after twenty-four hours.\nThe investigated agent and diclofenac were administered according to the following regimen: for preventive purposes 4 days prior to simulation of the arthritis on time per day intragastrically via a probe and on the 4th day 4 hours prior to the administration of formalin.\nAnimals were euthanized under hexobarbital anesthesia after 3, 7 and 14 days after the induction of arthritis. Prior to beginning of the experiment and prior to euthanasia, blood was taken from the ear vein, and was used to determine hematologic parameters.\nFor a pathomorphological study, the joints were extracted together with the surrounding tissues and fixed in 10% neutral formalin."}, "[6]": {"conditions": "diclofenac 8 mg/kg, present agent 250 mg/kg"}, "[7]": {"conditions": "diclofenac 8 mg/kg, present agent 250 mg/kg, all observation periods"}},
  "data": [
    {"smiles": "O=C(O)Cc1ccccc1Nc1c(Cl)cccc1Cl", "note": "[Diclofenac]", "values": [
      {"measurement": "influence on the volume of the inflammatory exudate in the abdominal cavity", "setting": "[1]; compared with Boswellik 100 and 130 mg/kg, rats and mice", "value": "considerably weaker influence"},
      {"measurement": "Degree of the anti-exudative effect A = [Ro − Rk]/Rk100%", "setting": "[1]; rats", "value": 24, "unit": "%"},
      {"measurement": "Volume of the peritoneal exudate", "setting": "[1]; rats, n = 10", "value": "3350 ± 220", "unit": "µL"},
      {"measurement": "Degree of the anti-exudative effect A = [Ro − Rk]/Rk100%", "setting": "[2]", "value": 85, "unit": "%"},
      {"measurement": "Volume of the peritoneal exudate", "setting": "[2]; n = 10", "value": "37 ± 2", "unit": "µL"},
      {"measurement": "safety index (ratio of ulcerogenicity/efficacy)", "setting": "[3]", "value": "4.3-9.9"},
      {"measurement": "influence on the synthesis of immunoglobulins", "setting": "[4]", "value": "specific immunomodulating influence on the synthesis of immunoglobulins"},
      {"measurement": "histological study of the joints, first observation", "setting": "[5]; 3 days after the beginning (time printed for present agent only)", "value": "inflammatory and destructive changes were observed"},
      {"measurement": "histological study of the joints, 7 days", "setting": "[5]; 7 days", "value": "articulate surfaces had uneven outlines"},
      {"measurement": "histological study of the joints, 14 days", "setting": "[5]; 14 days", "value": "surface of articulate cartilages was smoothed down"},
      {"measurement": "time until inflammatory process calmed down / destructive changes in articulate cartilages were reduced", "setting": "[5]; diclofenac 8 mg/kg (most of the animals), present agent 250 mg/kg", "value": 14, "unit": "days"},
      {"measurement": "average content of hemoglobin in the erythrocyte", "setting": "[5]; [6]", "value": "decreased"},
      {"measurement": "number of monocytes", "setting": "[5]; [6]", "value": "not changed"},
      {"measurement": "number of erythrocytes and hemoglobin in the peripheral blood", "setting": "[5]; diclofenac 8 mg/kg, present agent 250 mg/kg, intragastric, vs initial level", "value": "substantially reduced"},
      {"measurement": "number of granulocytes", "setting": "[5]; [7]", "value": "increased"},
      {"measurement": "number of leukocytes", "setting": "[5]; [7]", "value": "insignificantly reduced"},
      {"measurement": "level of thrombocytes", "setting": "[5]; diclofenac 8 mg/kg, present agent 250 mg/kg, entire period of the study", "value": "decrease"},
      {"measurement": "hematocrit", "setting": "[5]; diclofenac 8 mg/kg, present agent 250 mg/kg, whole period of observation", "value": "reduced"}
    ]}
  ]
}
